Measurements from ChEMBL document CHEMBL5143723, “Orally Bioavailable Enzymatic Inhibitor of CD38, MK-0159, Protects against Ischemia/Reperfusion Injury in the Murine Heart” (J Med Chem, 2022).

Experiments:
[1] = Drug exposure in mouse plasma assessed as AUC of drug at 3 mg/kg, po; assay type: ADME, organism-based; design: dose 3 mg/kg, route po
[2] = molecular target: T1, ADP-ribosyl cyclase/cyclic ADP-ribose hydrolase 1 (Homo sapiens, UniProt P28907)
T1 sequence (P28907 whole entry): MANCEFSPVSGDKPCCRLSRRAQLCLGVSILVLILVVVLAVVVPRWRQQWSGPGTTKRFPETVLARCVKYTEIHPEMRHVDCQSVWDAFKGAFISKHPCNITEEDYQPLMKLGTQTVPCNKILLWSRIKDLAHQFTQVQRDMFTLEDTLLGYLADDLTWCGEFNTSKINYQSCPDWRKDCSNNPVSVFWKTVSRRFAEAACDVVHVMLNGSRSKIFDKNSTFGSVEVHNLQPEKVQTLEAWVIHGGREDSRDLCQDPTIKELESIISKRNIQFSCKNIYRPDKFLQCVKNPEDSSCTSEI
Description: Inhibition of human his tagged CD38 using N6-etheno-NAD as substrate by fluorescence microplate reader assay

Compound | AUC [1] [ng·h/mL] | IC50 [2] [µM]
COCCO[C@H]1CC[C@H](NC(=O)c2cc(-c3cncs3)c(F)c3[nH]ccc23)CC1 | 5110 | 
COCCO[C@H]1CC[C@H](NC(=O)c2cc(-c3cncs3)cc3[nH]cc(C#N)c23)CC1 | 75 | 
COCCO[C@H]1CC[C@H](N(C)C(=O)c2cc(-c3cncs3)cc3[nH]ccc23)CC1 |  | > 100
COCCO[C@H]1CC[C@H](NC(=O)c2cc(-c3cncs3)cn3cnnc23)CC1 |  | > 100

More lines, now with the values ahead:

AUC [1] [ng·h/mL] | IC50 [2] [µM] | Compound
7380 |  | COCCO[C@H]1CC[C@H](NC(=O)c2cc(-c3cncs3)cc3cc[nH]c23)CC1
6820 |  | COCCO[C@H]1CC[C@H](NC(=O)c2cc(-c3cncs3)nc3cc[nH]c23)CC1
 | > 100 | COCCO[C@H]1CC[C@H](NC(=O)c2cc(-n3ccnc3C)cc3cc[nH]c23)CC1
207 |  | COCCO[C@H]1CC[C@H](NC(=O)c2cc(-n3ccnc3)cc3cn[nH]c23)CC1
